# Assay results from US20100203159A1, “METAL COMPONENT […] IN PLANT” (COSMO OIL CO., LTD., priority 2007, published 2010).
# Assays:
# [1] = tested on: radish; assay: Metal absorption-enhancing effect in radish by foliage treatment, metal analysis; format: in vivo; settings: foliage treatment 1 or 10 ppm, 100 L per 10 are, together with DTPA iron and magnesium sulfate, harvest 25th day
# Description: Radish was sowed in a pot of 1/57000×10 are in an amount of 6 seeds per pot and grown. An andosol (Kuroboku-soil) was used as soil and watering was suitably performed. On 11th day after the seeding (a two true leaves-developed stage), a solution containing 5-aminolevulinic acid hydrochloride prepared to a concentration of 0, 1, or 10 ppm in a developing agent-diluted (2000 times) liquid was applied to foliage treatment. Moreover, on this occasion, DTPA iron and magnesium sulfate were transformed into solutions having a concentration of 1.8 and 4.5 ppm in terms of Fe and MgO, respectively, and were applied to foliage treatment together with 5-aminolevulinic acid hydrochloride. The amount used for the treatment was 100 L per 10 are. The number of pots was 5 pots per test plot. On 15th day and 20th day after the seeding, thinning was performed and the number of plants per pot was adjusted to 4 individuals. On 25th day after the seeding, the plants were harvested and completely dried at 50° C. for two nights. Thereafter, they are pulverized and mixed in a mixer and then IPC metal analysis was performed.
# Similar operations were performed as in Example and the zinc concentration in radish was analyzed.
# [2] = tested on: spinach; assay: Metal absorption-enhancing effect in spinach by daily spraying, metal content in dry weight by ICP; format: in vivo
# Protocol: Two containers were provided and soil was placed in each of them, in which seeds of spinach were uniformly planted. From the day when the seeds were planted, water was applied once a day by means of a sprinkling can. To one of the container, tap water in which 5-aminolevulinic acid hydrochloride was dissolved in a concentration of 1 ppm was sprayed once a day in an amount of about 50 mL by means of a sprayer. Thinning was performed 3 weeks after the seed planting, and harvest was performed on the two containers after 38 days. At the harvest, the upper portions from the ground were cut out and the plant bodies were subjected to natural drying. After drying, the plant bodies was ground one by one in a mortar, the calcium content in dry weight was measured by ICP, and the concentration was calculated.
# Similar operations were performed as in Example 1 and the manganese concentration in spinach was calculated.
# Similar operations were performed as in Example 1 and the iron concentration in spinach was calculated.
# Similar operations were performed as in Example 1 and the copper concentration in spinach was calculated.
# Similar operations were performed as in Example 1 and the zinc concentration in spinach was calculated.
# [3] = tested on: barley; assay: Metal absorption-enhancing effect in barley hydroponics (water culture medium A), ICP metal analysis; format: in vivo, Barley (race: Fiber snow); settings: for calcium content-enhancing effect in barley: FIG. 1; for zinc content-enhancing effect in barley: FIG. 5; for copper content-enhancing effect in barley: FIG. 4; for manganese content-enhancing effect in barley: FIG. 2; for iron content-enhancing effect in barley: FIG. 3
# Protocol: Barley (race: Fiber snow) was seeded on river sand, sprouted, and grown for 9 days. After the growth, the sand was washed out with caring so as not to hurt roots and the roots were cut so as to adjust the length to 2 cm. The roots were immersed in a water culture medium A and hydroponics was performed.
# As water culture media, one in which no 5-aminolevulinic acid was dissolved and those in which the compound was dissolved so that each one has a concentration of 0.1, 0.3, or 1 ppm were prepared. The water culture medium was replaced 13 days after the start of the hydroponics, and hydroponics was continued for another 6 days. After the hydroponics, the plant was dried at 50° C. for two nights and then was subjected to ICP metal analysis.
# Similar operations were performed as in Example 6 except that the concentration of the added 5-aminolevulinic acid was adjusted to 0, 0.3, or 1 ppm and the manganese concentration in barley was analyzed.
# Similar operations were performed as in Example 6 except that the composition of the water culture medium was changed to twofold concentration of the water culture medium A and the concentration of the added 5-aminolevulinic acid was adjusted to 0, 1, or 3 ppm, and then the iron concentration in barley was analyzed.
# Similar operations were performed as in Example 6 except that the water culture medium A and a water culture medium having a composition which was twice the composition of the water culture medium A were used and the concentration of the added 5-aminolevulinic acid was adjusted to 0, 0.1, or 0.3 ppm, and then the copper concentration in barley was analyzed. The results are shown in FIG. 4 (left one in the figure is for the water culture medium A and right one is for twofold concentration of the water culture medium A).
# Similar operations were performed as in Example 6 except that the concentration of the added 5-aminolevulinic acid was adjusted to 0, 0.1, or 0.3 ppm, and the zinc concentration in barley was analyzed.
# Similar operations were performed as in Example 6 except that the concentration of the added 5-aminolevulinic acid was adjusted to 0, 0.1, 0.3, 1, or 3 ppm, and the manganese concentration in barley was analyzed.
# Similar operations were performed as in Example 6 except that the concentration of the added 5-aminolevulinic acid was adjusted to 0 or 30 ppm, and the calcium concentration in barley was analyzed.
# Similar operations were performed as in Example 6 except that the concentration of the added 5-aminolevulinic acid was adjusted to 0 or 30 ppm, and the manganese concentration in barley was analyzed.
# Similar operations were performed as in Example 6 except that the concentration of the added 5-aminolevulinic acid was adjusted to 0 or 30 ppm and the iron concentration in barley was analyzed.
# Similar operations were performed as in Example 6 except that the concentration of the added 5-aminolevulinic acid was adjusted to 0 or 30 ppm, and the copper concentration in barley was analyzed.
# Similar operations were performed as in Example 6 except that the concentration of the added 5-aminolevulinic acid was adjusted to 0 or 30 ppm, and the zinc concentration in barley was analyzed.
# Similar operations were performed as in Example 6 except that the concentration of the added 5-aminolevulinic acid was adjusted to 0 or 30 ppm and the magnesium concentration in barley was analyzed.
# [4] = tested on: potato; assay: Metal absorption-enhancing effect in potato tubers by foliage treatment, metal analysis; format: in vivo; settings: foliage treatment 1 ppm, from 30th day, then 8 times every other week, tubers harvested 105th day
# Protocol: A seed tuber of potato was subjected to light-exposure and sprout-growth to stimulate germination. The germinated potato was planted in a pot of 1/20000×10 are in an amount of 1 tuber per pot. On 30th day after the planting (height of terrestrial portion: about 30 cm), 5-Aminolevulinic Acid hydrochloride was dissolved in a developing agent-diluted (2000 times) liquid in a concentration of 0 or 1 ppm and was applied to foliage treatment. Thereafter, the foliage treatment was performed 8 times every other week. The number of pots was 3 pots per test plot and new sprouts were removed while a strong thick sprout was left so that the number of sprout per pot was 1. On 105th day after the planting, potato as tubers was harvested and the tubers were selected from each test plot so that the total weight was 120±10 g. Then, they were pared and completely dried at 50° C. for two nights. Thereafter, they are pulverized and mixed in a mixer and then […] metal analysis was performed.
# Similar operations were performed as in Example 14 and the magnesium concentration in potato was analyzed.
# [5] = tested on: barley; assay: Metal absorption-enhancing effect in barley hydroponics (water culture medium A), ICP metal analysis; format: in vivo, Barley (race: Fiber snow); settings: 0.1, 0.3, 1, or 3 ppm in water culture medium A; FIG. 6
smiles,measurement,setting,value
Cl.NCC(=O)CCC(=O)O [5-aminolevulinic acid hydrochloride],manganese content-enhancing effect in radish,[1]; FIG. 7,manganese content-enhancing effect was observed
same,zinc content-enhancing effect in radish,[1]; FIG. 8,zinc content-enhancing effect was observed
same,Average value of calcium concentration in spinach,"[2]; 1 ppm in tap water sprayed once a day, about 50 mL, harvest after 38 days, dry weight, n = 18, no-ALA control 0.61",0.68%
same,Average value of iron concentration in spinach,"[2]; 1 ppm sprayed once a day, harvest after 38 days, dry weight, n = 18, no-ALA control 0.015",0.049%
same,Average value of copper concentration in spinach,"[2]; 1 ppm sprayed once a day, harvest after 38 days, dry weight, n = 18, no-ALA control 0.023",0.029%
same,Average value of manganese concentration in spinach,"[2]; 1 ppm sprayed once a day, harvest after 38 days, dry weight, n = 18, no-ALA control 0.027",0.031%
same,Average value of zinc concentration in spinach,"[2]; 1 ppm sprayed once a day, harvest after 38 days, dry weight, n = 18, no-ALA control 0.033",0.048%
same,calcium content-enhancing effect in spinach,"[2]; spraying, 1 ppm once a day",calcium content-enhancing effect was observed
same,copper content-enhancing effect in spinach,"[2]; spraying, 1 ppm once a day",copper content-enhancing effect was observed
same,iron content-enhancing effect in spinach,"[2]; spraying, 1 ppm once a day",iron content-enhancing effect was observed
same,manganese content-enhancing effect in spinach,"[2]; spraying, 1 ppm once a day",manganese content-enhancing effect was observed
same,zinc content-enhancing effect in spinach,"[2]; spraying, 1 ppm once a day",zinc content-enhancing effect was observed
same,calcium content-enhancing effect in barley,"[3]; 0.1, 0.3, or 1 ppm in water culture medium A",calcium content-enhancing effect was observed
same,zinc content-enhancing effect in barley,[3]; 0.1 or 0.3 ppm in water culture medium A,zinc content-enhancing effect was observed
same,copper content-enhancing effect in barley,"[3]; 0.1 or 0.3 ppm, water culture medium A and twofold concentration of medium A",copper content-enhancing effect was observed
same,manganese content-enhancing effect in barley,[3]; 0.3 or 1 ppm in water culture medium A,manganese content-enhancing effect was observed
same,iron content-enhancing effect in barley,"[3]; 1 or 3 ppm, twofold concentration of water culture medium A",iron content-enhancing effect was observed
same,calcium content-enhancing effect in barley,"[3]; 30 ppm in water culture medium, Comparative Example 1",calcium content-enhancing effect was not observed
same,manganese content-enhancing effect in barley,"[3]; 30 ppm in water culture medium, Comparative Example 2",manganese content-enhancing effect was not observed
same,iron content-enhancing effect in barley,"[3]; 30 ppm in water culture medium, Comparative Example 3",iron content-enhancing effect was not observed
same,copper content-enhancing effect in barley,"[3]; 30 ppm in water culture medium, Comparative Example 4",copper content-enhancing effect was not observed
same,zinc content-enhancing effect in barley,"[3]; 30 ppm in water culture medium, Comparative Example 5",zinc content-enhancing effect was not observed
same,magnesium content-enhancing effect in barley,"[3]; 30 ppm in water culture medium, Comparative Example 6, FIG. 6",magnesium content-enhancing effect was not observed
same,iron content-enhancing effect in potato,[4]; FIG. 9,iron content-enhancing effect was observed
same,magnesium content-enhancing effect in potato,[4]; FIG. 10,magnesium content-enhancing effect was observed
same,magnesium content-enhancing effect in barley,[5],magnesium content-enhancing effect was observed
